“And” between values parts separate entries of the source, which are not always exact repeats. Equal values may be shown once. “Also recorded” adds a separate entry of the source. Where a name gives a salt, the structure may show the parent alone. Read-outs that look alike come from different tables or passages of the source.
What was measured:
[1] = system: nicotine to cotinine metabolism by human liver microsomes; assay: Chemical inhibition studies of nicotine to cotinine metabolism in 30 human liver microsomes and K27 microsomes; format: biochemical; details: for rank order of potency in inhibiting cotinine formation: 10 and 100 μM inhibitor, 50 μM nicotine, K27 liver microsomes; for mean inhibition of cotinine formation (mean±SD): 150 μM inhibitor (each), 100 μM (S)-nicotine, 30 human liver microsomes
Experimental: Chemical inhibition studies. […] To maximize inhibition, and reduce the loss due to its own metabolism, a concentration of 150 μM was chosen for each specific inhibitor. […] This concentration was chosen to maximize the contributions of each cytochrome P450 involved in nicotine metabolism, since each enzyme would likely have varying affinities for nicotine. […] High and low concentrations ([…]) of coumarin, 7methylcoumarin, 7-methoxycoumarin, and 7-ethoxycoumarin were incubated with 50 μM nicotine in K27 human liver microsomes.

CYP2D6 [2] = target: T1, CYP2D6 (Homo sapiens, UniProt P10635); assay: in vitro; details: pH 7.4
T1 sequence (P10635 whole entry): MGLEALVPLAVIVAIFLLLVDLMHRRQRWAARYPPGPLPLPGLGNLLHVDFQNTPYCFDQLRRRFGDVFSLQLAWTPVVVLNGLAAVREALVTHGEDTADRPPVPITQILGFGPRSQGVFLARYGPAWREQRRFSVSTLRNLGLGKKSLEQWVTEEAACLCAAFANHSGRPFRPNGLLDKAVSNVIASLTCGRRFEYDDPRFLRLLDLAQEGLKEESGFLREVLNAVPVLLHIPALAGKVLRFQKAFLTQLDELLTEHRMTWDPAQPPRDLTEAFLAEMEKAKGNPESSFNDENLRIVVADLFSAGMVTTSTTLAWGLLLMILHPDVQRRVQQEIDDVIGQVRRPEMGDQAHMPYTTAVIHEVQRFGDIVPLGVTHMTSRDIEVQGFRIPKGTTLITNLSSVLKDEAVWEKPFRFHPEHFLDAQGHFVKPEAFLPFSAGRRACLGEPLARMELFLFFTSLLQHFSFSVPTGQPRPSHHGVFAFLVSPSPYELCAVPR

CYP2A6 [3] = target: T2, CYP2A6 (Homo sapiens, UniProt P11509); assay: biochemical
T2 sequence (P11509 1-494): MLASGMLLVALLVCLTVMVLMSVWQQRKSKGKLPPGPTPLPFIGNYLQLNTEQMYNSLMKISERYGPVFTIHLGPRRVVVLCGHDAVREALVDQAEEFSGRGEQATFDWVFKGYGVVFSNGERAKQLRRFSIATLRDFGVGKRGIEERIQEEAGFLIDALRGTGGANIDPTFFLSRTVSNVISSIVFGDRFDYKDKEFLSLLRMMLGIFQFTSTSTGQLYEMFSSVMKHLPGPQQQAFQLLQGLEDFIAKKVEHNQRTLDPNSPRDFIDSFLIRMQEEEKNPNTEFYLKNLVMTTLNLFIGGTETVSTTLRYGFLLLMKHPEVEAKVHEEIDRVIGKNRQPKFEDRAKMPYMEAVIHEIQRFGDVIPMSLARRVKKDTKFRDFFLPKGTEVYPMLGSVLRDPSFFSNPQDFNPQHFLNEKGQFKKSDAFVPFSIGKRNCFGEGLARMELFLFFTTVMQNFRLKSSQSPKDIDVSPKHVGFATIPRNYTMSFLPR
Experimental: Coumarin, 7-methylcoumarin, 7-methoxycoumarin and 7-ethoxycoumarin, at 10 and 100 μM concentrations, were incubated with 50 μM nicotine in K27 human liver microsomes. Furthermore, nicotine at 10, 30 and 50 μM concentrations was incubated using K27 liver microsomes in the presence of 0, 1, 2 and 5 μM concentrations of coumarin.
Microsomes were removed from −70° C. freezer and thawed on ice. […] The reaction was stopped by adding 100 μl to 20% Na2CO3 (pH 11.4).

[4] = in humans; cited from earlier work
CYP2A6 [5] = target: T2, CYP2A6; assay: Clinical study of methoxsalen pre-treatment before subcutaneous nicotine in dependent smokers; format: in vivo; design: 200 μl human liver microsomes (0.5 mg/ml); from tissue; host or cells: human liver microsomes (donor livers K12, K26, K27, K28)
Experimental: Frequent blood samples were drawn over 6 hours for measurement of nicotine and cotinine concentrations in plasma and measures of nicotine effects (e.g., heart rate; blood pressure; symptoms and urges and desires to smoke).
Each subject abstained from tobacco, food, beverages (other than water), and any inconsistently used drugs from midnight before each study day but continued to take any regularly scheduled drugs allowed by the protocol (e.g., oral contraceptives, daily vitamins). Before baseline measures were taken, a breath CO sample (Ecolyzer) was taken to assess compliance with the smoking abstinence (<10 ppm expected). The subsequent daily schedule is summarized here. All measurements are with respect to a time zero at 8 AM, at which time the first of three hourly nicotine injections were given. Nicotine was injected at 0, +1, and +2 hours.
Baseline physiologic and subjective measures were taken at −30 minutes, +30 minutes, and hourly thereafter until +5.5 hours, approximately coinciding with the expected peak plasma nicotine concentrations after each injection. Blood samples were taken at least hourly, more often around the expected peaks after the first and third injections, as described below.
Sterile nicotine bitartrate was obtained from Sigma Chemical. […] Nicotine injections of 31 μg/kg (expressed as the base) in sterile saline were used. […] The solutions were passed through a viral filter to remove any remote risk of viral or bacterial contamination.
Using an indwelling venous catheter, 8 ml blood samples were drawn every hour from +0 to +6 hours, and additional blood samples were taken at 15, 25, and 40 minutes after the first and third nicotine injections to characterize the kinetics around the expected time of the peak concentration, 25 minutes from injection. Samples that could not be immediately centrifuged for extraction of plasma were stored on ice for at most one hour before centrifugation.
Plasma (nicotine, cotinine) and urinary nicotine and cotinine were measured using an HPLC ion exchange column assay, using an electrochemical detector for nicotine and a UV detector for other compounds. The sensitivity of the nicotine assay was <1 ng/ml and that of the cotinine was <5 ng/ml. Conjugates in urine were determined after hydrolysis with beta-glucuronidase.

in vitro = details: human, human liver microsomes
Experimental: The reaction was started by adding NADPH.
Ethyl acetate (3 mls) was added for extraction purposes.
Data Analysis. […] [formula]

[6] = smokers infused with 2 μg/kg/min×30 minutes
CYP2D6 [7] = target: T1, CYP2D6; details: human liver microsomes, Wu, 1993; cited from earlier work
[8] = in vivo; cited from earlier work
[9] = system: nicotine to cotinine metabolism by K20 human liver microsomes
[10] = system: nicotine to cotinine metabolism by K20 human liver microsomes; assay: Quinidine and coumarin inhibition of cotinine formation in K20 human liver microsomes
CYP2A6 [11] = assay: Antisense knockdown of CYP2A6 protein in h2A6 lymphoblast cells (Western blot); format: cell-based, human
Experimental: (§1) In order to test the feasiblility of using antisense oligodeoxynucleotides (ASO) for the reduction of the CYP2A6 enzyme we designed 4 ASO to four different parts of the human CYP2A6 gene and mRNA sequence. The ability to decrease CYP2A6 protein was tested in 2 different human cell lines. The first was a human lymphoblast cell line (h2A6) with a plasmid expression system containing the human CYP2A6 cDNA which is commercially available from Gentest Corp (Woburn, Mass.) and the second was a human hepatic cell line which expresses CYP2A6 (HepG2).
The h2A6 P450 cells were grown to 3×10^6 cells, the media removed and 5 μg ASO and 20 μg/ml lipofectin was added in 1 ml of 5% horse serum supplemented media. The cells were grown for 24 hr when a further 4 mls of complete media (10% horse serum) was added and the cells were grown for an additional 48 hr. Each cell sample was then washed 3 times with phosphate buffered saline, pelleted and frozen. […] These studies were then repeated using the addition of missense oligodeoxynucleotides (MSO) controls for this sequence. The MSO controls have 2 nucleotides switched at the 5 and 3 prime end.

CYP2A6 [12] = assay: Antisense knockdown of CYP2A6 protein in HepG2 cells; format: cell-based, human; details: 2 μg ASO, relative to control untreated and MSO#23 treated cells
Experimental: as §1
The human hepatic HepG2 cells, which express CYP2A6, were grown and aliquoted at 1.0×10^5 cells and grown for 48 hrs in 2 mls complete media (10% fetal calf serum). After 48 hr, 2 μg ASO oligos and 15 μg/ml lipofectin was added in 1 ml 5% FCS media and grown for 24 hr. Cells then trypsinized and washed for Western blots or fixed with 4% paraformaldehyde for Immunocytochemistry.

[13] = seven smokers, methoxsalen vs placebo

## CCOc1ccc2ccc(=O)oc2c1 [7-ethoxycoumarin]
[1]
  rank order of potency in inhibiting cotinine formation: coumarin>7-methoxycoumarin>7-methylcoumarin>7-ethoxycoumarin

## COc1ccc2ccc(=O)oc2c1 [7-methoxycoumarin]
[1]
  rank order of potency in inhibiting cotinine formation: coumarin>7-methoxycoumarin>7-methylcoumarin>7-ethoxycoumarin

## Cc1ccc2ccc(=O)oc2c1 [7-methylcoumarin]
[1]
  rank order of potency in inhibiting cotinine formation: coumarin>7-methoxycoumarin>7-methylcoumarin>7-ethoxycoumarin

## O=c1ccc2ccccc2o1 [coumarin]
[1]
  mean inhibition of cotinine formation (mean±SD): over 80%
  rank order of potency in inhibiting cotinine formation: strongest inhibitory effect; also recorded: coumarin>7-methoxycoumarin>7-methylcoumarin>7-ethoxycoumarin
[1]; listed as Coumarin
  mean inhibition of cotinine formation (mean±SD): 84%±11% and 84±11%
[1]; Cornish-Bowden plots
  nature of inhibition of nicotine metabolism: competitive
[1]; K27 human liver microsomes, n=3, Dixon plot, read-out: apparent Ki, inhibition of nicotine metabolism
  Ki: ~2 µM
[1]; ex vivo in human liver microsomes, read-out: Ki, inhibition of NIC metabolism to COT
  Ki: 1.5 µM

## COc1ccc2c(c1)[C@]13CCCC[C@@H]1[C@H](C2)N(C)CC3 [dextromethorphan, Dextromethorphan hydrobromide]
CYP2D6 [2]
  Km at 30 min: 5.79 ± 2.01 µM

## CCN(CC)C(=S)S [diethyldithiocarbamic acid]
CYP2A6 [3]
  Ki: 14.5 µM

## COc1c2occc2cc2ccc(=O)oc12 [methoxsalen, 9-Methoxy-7H-furol[3,2-g][1]benzopyran-7-one]
[4]
  half-life: about 1 hour
CYP2A6 [5]; plasma, seven subjects, FIG. 25
  change in nicotine concentrations: large changes
CYP2A6 [5]; [13]
  desire to smoke and urge to smoke: significant decreased desire to smoke and urge to smoke
  expectation that a cigarette would be pleasant: significant decrease
  subjective and physiologic effects accompanying increased plasma nicotine: significant increase in nausea, anxiousness, difficulty concentrating, systolic blood pressure

## O=C1C[C@@H](c2ccc(O)cc2)Oc2cc(O)cc(O)c21 [naringenin]
CYP2A6 [3]
  Ki: 4.3 µM

## CN1CCC[C@H]1c1cccnc1 [nicotine, (S)-nicotine]
In vitro; pH 7.4, apparent Km, formation of cotinine (mean±SD), 30 human liver microsomes
  Km at 45 min: 66.7 ± 31.8 µM
In vitro; pH 7.4, mean Km, nicotine to cotinine (mean±SD), 30 human livers
  Km at 45 min: 66.6 ± 31.8 µM
[6]
  urine concentration of NIC: > 80 ng/mL
CYP2D6 [7]
  inhibition of dextromethorphan metabolism by CYP2D6: did not inhibit

## Cc1ccccc1C(OCCN(C)C)c1ccccc1 (stereo not drawn) [orphenadrine]
[8]
  estimated half-life: about 14 h

## C=C[C@H]1C[N@@]2CC[C@H]1C[C@@H]2[C@@H](O)c1ccnc2ccc(OC)cc12 [quinidine]
[9]
  inhibition: ~20% and 25%
[10]; 0.1 μM inhibitor
  inhibition of cotinine formation: no inhibition
[10]; 1.0 μM inhibitor
  inhibition of cotinine formation: no inhibition
[10]; 10 μM inhibitor
  inhibition of cotinine formation: 8%

## CO[C@H]1C[C@H](O[C@H]2[C@H](C)[C@@H](O[C@@H]3O[C@H](C)C[C@H](N(C)C)[C@H]3OC(C)=O)[C@@H](C)C[C@@]3(CO3)C(=O)[C@H](C)[C@@H](OC(C)=O)[C@@H](C)[C@@H](C)OC(=O)[C@@H]2C)O[C@@H](C)[C@@H]1OC(C)=O [troleandomycin]
[1]
  mean inhibition of cotinine formation (mean±SD): 3%

## ASO#23: antisense oligodeoxynucleotide, CYP2A6 mRNA 333-353, exon 2 3 prime end: CCATAGCCTTTGAAGACCCAG (DNA, backbone and methylation of C not given here)
CYP2A6 [11]; 5 μg ASO, Western blot
  CYP2A6 immunoreactivity, first test of 4 ASO: effective at removing the CYP2A6 immunoreactivity
CYP2A6 [11]; relative to untreated control cells and MSO#23-treated cells
  amount of CYP2A6, repeat with MSO controls: effectively deceased the amount of CYP2A6
CYP2A6 [12]
  CYP2A6 protein: profound decreases in CYP2A6 protein
